These results are taken from EP1673354B1, “ARYLINDENOPYRIDINES AND ARYLINDENOPYRIMIDINES AND THEIR USE AS ADENOSINE A2A RECEPTOR ANTAGONISTS” (Ortho-McNeil Pharmaceutical, Inc., priority 2003, dated 2005).

The term Ki denotes a dissociation constant, usually derived from enzyme kinetics or from competition with a known ligand.

Assay [1] has as its target T1, human A2a adenosine receptor (Homo sapiens, UniProt P29274).
T1 construct: purchased PerkinElmer RB-HA2a; host or cells: HEK293 cell plasma membrane
In words: Ligand binding assay for adenosine A2a receptor ([3H]CGS21680, HEK293 plasma membrane). The method, then: Ligand Binding Assay for Adenosine A2a Receptor
Ligand binding assay of adenosine A2a receptor was performed using plasma membrane of HEK293 cells containing human A2a adenosine receptor (PerkinElmer, RB-HA2a) and radioligand [^3H]CGS21680 (PerkinElmer, NET1021). Assay was set up in 96-well polypropylene plate in total volume of 200 µl by sequentially adding 20 µL1:20 diluted membrane, 130 µLassay buffer (50 mM Tris·HCl, pH7.4 10 mM MgCl2, 1 mM EDTA) containing [^3H] […] Nonspecific binding was determined by […] NECA. Reaction was carried out at room temperature for 2 hours before filtering through 96-well GF/C filter plate pre-soaked in 50 mM Tris·HCl, pH7.4 containing 0.3% polyethylenimine. Plates were then washed 5 times with cold 50 mM Tris·HCl, pH7.4, dried and sealed at the bottom. Microscintillation fluid 30 µl was added to each well and the top sealed. Plates were counted on Packard Topcount for [^3H]. Data was analyzed in Microsoft Excel and GraphPad Prism programs.

The target of assay [2] is T2, human adenosine A2a receptors (Homo sapiens, UniProt P29274).
T2 construct: expressed in transfected cells; host or cells: CHO-K1 cells with cAMP-inducible beta-galactosidase reporter gene
Description: Adenosine A2a receptor functional assay, antagonist mode (cAMP-inducible beta-galactosidase reporter, 50 nM NECA). It is filed as cell-based. As to conditions: CHO-K1 cells, read-out: Ki (nM) A2a antagonist function. How it is done: Adenosine A2a Receptor Functional Assay
CHO-K1 cells overexpressing human adenosine A2a receptors and containing cAMP-inducible beta-galactosidase reporter gene were seeded at 40-50K/well into 96-well tissue culture plates and cultured for two days. On assay day, cells were washed once with 200 µL assay medium (F-12 nutrient mixture/0.1 % BSA). For agonist assay, adenosine A2a receptor agonist NECA was subsequently added and cell incubated at 37°C, 5% CO2 for 5 hrs before stopping reaction. In the case of antagonist assay, cells were incubated with antagonists for 5 minutes at R.T. followed by addition of 50 nM NECA. Cells were then incubated at 37°C, 5% CO2 for 5 hrs before stopping experiments by washing cells with PBS twice. 50 µL 1X lysis buffer (Promega, 5X stock solution, needs to be diluted to 1X before use) was added to each well and plates frozen at -20°C. For β-galactosidase enzyme colorimetric assay, plates were thawed out at room temperature and 50 µL 2X assay buffer (Promega) added to each well. Color was allowed to develop at 37°C for 1 h or until reasonable signal appeared. Reaction was then stopped with 150 µL 1 M sodium carbonate. […] Data was analyzed in Microsoft Excel and GraphPad Prism programs.

Another assay addresses T3, Adenosine A1 receptor (Homo sapiens, UniProt P30542).
T3 sequence (P30542 1-326): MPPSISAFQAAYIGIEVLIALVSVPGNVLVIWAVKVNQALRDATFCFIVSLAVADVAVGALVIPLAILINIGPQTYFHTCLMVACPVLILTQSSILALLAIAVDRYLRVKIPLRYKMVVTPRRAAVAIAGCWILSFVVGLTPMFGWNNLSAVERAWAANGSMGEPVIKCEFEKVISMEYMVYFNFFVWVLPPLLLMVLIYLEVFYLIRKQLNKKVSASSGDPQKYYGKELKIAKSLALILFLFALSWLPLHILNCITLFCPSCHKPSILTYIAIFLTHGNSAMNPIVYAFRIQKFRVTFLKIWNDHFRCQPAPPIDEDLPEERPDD
In words: A1 antagonist function (no method described). It is filed as cell-based.

Setting [3] is: radioligand [3H]CGS21680, HEK293 membranes, room temperature 2 hours; read-out: Ki (nM) A2a binding.

Like-named read-outs stand apart in the source and are kept apart here.

T2 sequence (P29274 whole entry): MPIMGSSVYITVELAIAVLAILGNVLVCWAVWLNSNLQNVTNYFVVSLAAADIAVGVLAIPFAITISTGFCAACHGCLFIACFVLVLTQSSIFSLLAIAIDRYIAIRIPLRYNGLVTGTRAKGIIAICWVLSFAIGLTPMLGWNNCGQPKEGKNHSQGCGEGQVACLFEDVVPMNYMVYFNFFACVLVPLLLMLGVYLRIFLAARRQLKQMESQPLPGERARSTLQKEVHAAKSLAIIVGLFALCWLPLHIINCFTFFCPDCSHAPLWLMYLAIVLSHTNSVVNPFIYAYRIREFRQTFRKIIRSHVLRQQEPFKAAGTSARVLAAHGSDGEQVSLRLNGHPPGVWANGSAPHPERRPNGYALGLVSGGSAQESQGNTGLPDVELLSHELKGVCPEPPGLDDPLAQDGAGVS
T1 sequence (P29274 whole entry): as above

For `COc1ccc(-c2nc(N)nc3c2Cc2ccccc2-3)cc1` [Compound 1], the Ki was determined as 44.6 nM in assay [1] (setting [3]), 234 nM in assay [2] and 53 nM at Adenosine A1 receptor.
Taken in the same sequence, the figures for `COc1ccc(-c2nc(N)nc3c2C(=O)c2ccccc2-3)cc1` [Compound 2] were 2.03 nM, 6.87 nM and 5.32 nM.
Taken in the same sequence, the figures for `Nc1nc(-c2ccco2)c2c(n1)-c1ccccc1C2` [Compound 4] were 0.885 nM, 2.63 nM and 15.6 nM.
Taken in the same sequence, the figures for `Nc1nc(-c2cccnc2)c2c(n1)-c1ccccc1C2=O` [Compound 5] were 5.36 nM, 9.64 nM and 27.1 nM.
Take `Nc1nc(-c2ccncc2)c2c(n1)-c1ccccc1C2=O` [Compound 6]: the results for the Ki (in assay [1] (setting [3]); in assay [2]; at Adenosine A1 receptor) were 3.9 nM, 4.56 nM and 16.4 nM, respectively.
Consider `Nc1nc(-c2nccs2)c2c(n1)-c1ccccc1C2=O` [Compound 7], for which the Ki in assay [2] came out at 0.49 nM; at Adenosine A1 receptor it was 6.89 nM.
Regarding `Nc1nc(-c2ccc(Cl)cc2)c2c(n1)-c1ccccc1C2=O` [Compound 8], the Ki was 58.4 nM in assay [1] (setting [3]), 5.5 nM in assay [2] and 11.6 nM on Adenosine A1 receptor.
Taken in the same sequence, the figures for `Nc1nc(-c2cccc([N+](=O)[O-])c2)c2c(n1)-c1ccccc1C2=O` [Compound 9] were 20.8 nM, 4.85 nM and 7.69 nM.
`Nc1nc(-c2ccccc2)c2c(n1)-c1ccccc1C2=O` [Compound 10, 2-amino-4-phenyl-indeno[1,2-d]pyrimidin-5-one] had a Ki at Adenosine A1 receptor of 1.2 nM.
Regarding `COc1cccc(-c2nc(N)nc3c2C(=O)c2ccccc2-3)c1` [Compound 11], the results for the Ki (in assay [1] (setting [3]); in assay [2]; at Adenosine A1 receptor) were 8.85 nM, 1.63 nM and 2.47 nM, respectively.
On to `COc1ccccc1-c1nc(N)nc2c1C(=O)c1ccccc1-2` [Compound 12], for which the Ki in assay [1] (setting [3]) worked out at 33.5 nM; in assay [2], 32.5 nM; at Adenosine A1 receptor, 172 nM.
In the same order, the values of `Nc1nc(-c2cccc(O)c2)c2c(n1)-c1ccccc1C2=O` [Compound 13] are 5.16 nM, 35.6 nM and 10.3 nM.
Taken in the same sequence, the figures for `Nc1nc(-c2ccsc2)c2c(n1)-c1ccccc1C2=O` [Compound 15] were 3.23 nM, 0.258 nM and 3.46 nM.
Taken in the same sequence, the figures for `Nc1nc(-c2ccco2)c2c(n1)-c1ccc(Br)cc1C2=O` [Compound 16] were 1.75 nM, 0.169 nM and 5.22 nM.
Take `Nc1nc(-c2ccco2)c2c(n1)-c1cccc(O)c1C2=O` [Compound 17]: the Ki stood at 6.3 nM in assay [1] (setting [3]), 67.1 nM in assay [2] and 111 nM on Adenosine A1 receptor.
Taken in the same sequence, the figures for `CSc1nc(N)nc2c1C(=O)c1c(N)cccc1-2` [Compound 18] were 318 nM, greater than 3000 nM and 189 nM.
In the same order, the values of `CN(C)C=Nc1nc(-c2cccc(F)c2)c2c(n1)-c1ccccc1C2=O` [Compound 19] are 111 nM, 20.9 nM and 21.6 nM.
Regarding `Nc1nc(-c2ccco2)c2c(n1)-c1c(N)cccc1C2=O` [Compound 21], the Ki in assay [1] (setting [3]) is 0.376 nM; in assay [2] it was 0.053 nM; on Adenosine A1 receptor, 3.51 nM.
In the same order, the values of `Nc1nc(-c2ccco2)c2c(n1)-c1ccc(C(F)(F)F)cc1C2=O` [Compound 22] are 14.2 nM, 0.055 nM and 2.75 nM.
In the same order, the values of `Nc1nc(-c2ccco2)c2c(n1)-c1cc(C(F)(F)F)ccc1C2=O` [Compound 23] are 13.6 nM, 0.55 nM and 1.47 nM.
Taken in the same sequence, the figures for `CNc1nc(-c2ccccc2)c2c(n1)-c1ccccc1C2=O` [Compound 24] were 30.3 nM, greater than 3000 nM and 5.99 nM.
Consider `Nc1nc(-c2ccco2)c2c(n1)-c1cc(Cl)c(Cl)cc1C2=O` [Compound 25], for which the Ki in assay [1] (setting [3]) amounted to 173 nM; in assay [2] it was 5.69 nM; on Adenosine A1 receptor it was 17.4 nM.
For the compound `Nc1nc(-c2ccco2)c2c(n1)-c1c(Cl)ccc(Cl)c1C2=O` [Compound 26], the inhibition constant (Ki) in assay [1] (setting [3]) was found to be 34.6 nM; in assay [2], 0.88 nM; at Adenosine A1 receptor, 3.13 nM.
In the case of `CCN(CC)CCNc1nc(-c2ccccc2)c2c(n1)-c1ccccc1C2=O` [Compound 27], the values for the Ki (in assay [1] (setting [3]); in assay [2]; at Adenosine A1 receptor) were 147 nM, 68.3 nM and greater than 1000 nM, respectively.
As to `Nc1nc(-c2ccc(F)c(F)c2)c2c(n1)-c1ccccc1C2=O` [Compound 28], the Ki in assay [1] (setting [3]) stood at 48.9 nM; in assay [2], 3.53 nM; on Adenosine A1 receptor, 5.86 nM.
In the same order, the values of `Nc1nc(-c2cc(F)cc(F)c2)c2c(n1)-c1ccccc1C2=O` [Compound 29] are 20.9 nM, 1.42 nM and 4.27 nM.
Taken in the same sequence, the figures for `COc1ccc(-c2nc(N)nc3c2C(=O)c2ccccc2-3)cn1` [Compound 30] were 31.5 nM, 10.2 nM and 4.05 nM.
Turning to `C[C@H](O)[C@@H](O)c1cccc2c1C(=O)c1c(-c3ccccc3)nc(N)nc1-2` [Compound 32], the Ki came out at 3.55 nM in assay [1] (read-out: Ki (nM) A2a binding; radioligand [3H]CGS21680, HEK293 membranes, room temperature 2 hours); 0.634 nM in assay [2]; 9.89 nM on Adenosine A1 receptor.
`C[C@H](O)[C@@H](O)c1cccc2c1-c1nc(N)nc(-c3ccccc3)c1C2=O` [Compound 33]: the Ki in assay [1] (setting [3]) was determined as 0.175 nM; in assay [2], 0.34 nM; at Adenosine A1 receptor, 0.021 nM.
`CCCn1cc(-c2nc(N)nc3c2C(=O)c2ccccc2-3)ccc1=O` [Compound 34]: the Ki in assay [1] (setting [3]) was determined as 560 nM.
Take `Nc1nc(-c2ccco2)c2c(n1)-c1cc(Br)ccc1C2=O` [Compound 35]: the Ki in assay [1] (setting [3]) came to 3.49 nM; in assay [2], 0.265 nM; on Adenosine A1 receptor, 7.09 nM.
For `CC(C)(C)OC(=O)NC1CCN(Cc2cccc3c2C(=O)c2c(-c4ccccc4)nc(N)nc2-3)CC1` [Compound 60], in assay [1] (setting [3]), the inhibition constant (Ki) worked out at 34.3 nM.
As for `CCN(Cc1ccncc1)Cc1cccc2c1C(=O)c1c(-c3ccccc3)nc(N)nc1-2` [Compound 61], the Ki in assay [1] (setting [3]) was 29.8 nM.
On the same count and under the same terms, the figure for `CN(Cc1ccco1)Cc1cccc2c1C(=O)c1c(-c3ccccc3)nc(N)nc1-2` [Compound 62] is 58.4 nM.
Take `N#Cc1c(N)nc(-c2ccco2)c2c1-c1ccccc1C2=O` [Compound 63, 9H-indeno[2,1-c]pyridine-4-carbonitrile, 3-amino-1-furan-2-yl-9-oxo-]: the Ki in assay [1] (setting [3]) was 0.59 nM; on Adenosine A1 receptor it was 0.18 nM.
As to `CN(C)CCN(C)C(=O)c1c(N)nc(-c2ccco2)c2c1-c1ccccc1C2=O` [Compound 77, 9H-indeno[2,1-c]pyridine-4-carboxylic acid, 3-amino-1-furan-2-yl-9-oxo-, (2-dimethylamino-ethyl)-methyl-amide], the Ki in assay [1] (setting [3]) came to 6.25 nM; in assay [2], 0.68 nM.
In the same order, the values of `CC(CN(C)C)NC(=O)c1c(N)nc(-c2ccco2)c2c1-c1ccccc1C2=O` (centres unmarked) [Compound 78, 9H-indeno[2,1-c]pyridine-4-carboxylic acid, 3-aminol-furan-2-yl-9-oxo-, (2-dimethylamino-1-methyl-ethyl)-amide] are 17.6 nM and 1.58 nM.
Take `CCc1nc(N)c(C#N)c2c1C(=O)c1ccccc1-2` [Compound 85]: the Ki in assay [1] (setting [3]) was 508 nM.
